From ChEMBL document CHEMBL1201862, “PubChem BioAssay data set” (2004)
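Where inhibition never reached the appropriate level, the endpoint shown equals the highest concentration tested. Otherwise, values were interpolated linearly from a five-concentration, 48-hour dose response in 96-well plates. GI50 is the concentration that inhibits growth by half.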 The source made the active and inactive calls. Rule as the data show it: active = GI50 up to about 1.1 µM and inactive = higher.

Key:
Assay in all cases: NCI-60 cell line screen, 48 h
[1] = tested on: SK-MEL-2
[2] = tested on: SF-268
[3] = tested on: NCI-H23
[4] = tested on: RPMI-8226
[5] = tested on: SK-OV-3
[6] = tested on: KM12
[7] = tested on: HOP-92
[8] = tested on: UACC-62
[9] = tested on: HT-29
[10] = tested on: SF-539
[11] = tested on: M14
[12] = tested on: MDA-MB-435
[13] = tested on: HOP-62
[14] = tested on: CCRF-CEM
[15] = tested on: SR
[16] = tested on: SK-MEL-5
[17] = tested on: Hs-578T
[18] = tested on: T47D
[19] = tested on: HCT-15
[20] = tested on: LOX IMVI

Row | SMILES | GI50 [1] | GI50 [2] | GI50 [3] | GI50 [4] | GI50 [5] | GI50 [6] | GI50 [7] | GI50 [8] | GI50 [9] | GI50 [10] | GI50 [11] | GI50 [12] | GI50 [13] | GI50 [14] | GI50 [15] | GI50 [16] | GI50 [17] | GI50 [18] | GI50 [19] | GI50 [20]
1 | O=Nc1ccc(O)c2ncccc12 | 2.21 µM (inactive) | 3.68 µM (inactive) | 0.762 µM (active) | 3.52 µM (inactive) | 12.6 µM (inactive) | 5.19 µM (inactive) | 3.09 µM (inactive) | 0.875 µM (active) | 15.3 µM (inactive) | 1.44 µM (inactive) | 6.03 µM (inactive) | 1.26 µM (inactive) | 2.8 µM (inactive) | 0.611 µM (active) | 0.328 µM (active) | 7.21 µM (inactive) | 0.531 µM (active) | 7.53 µM (inactive) | 2.52 µM | 3.89 µM (inactive)
2 | C=CC(OC(=O)C(C)C)c1ccc(OC(=O)C(C)C)cc1 (stereo not given) | 11.2 µM (inactive) | 26.2 µM (inactive) | 20 µM (inactive) | 2.04 µM (inactive) | 19.8 µM (inactive) | 2.21 µM (inactive) | 16.7 µM (inactive) | 15.8 µM (inactive) | 11.1 µM (inactive) | 17 µM (inactive) | 7.67 µM (inactive) | 13.6 µM (inactive) | 9.95 µM (inactive) | 3.24 µM (inactive) | 6.92 µM (inactive) | 16.3 µM (inactive) | 35.7 µM (inactive) | 21.6 µM (inactive) | 5.74 µM | 4.47 µM (inactive)
3 | COC(=O)C1C(OS(=O)(=O)O)CCC2CN3CCc4c([nH]c5ccccc45)C3CC21 (stereo not given) | > 100 µM (inactive) | > 100 µM (inactive) | > 100 µM (inactive) | > 100 µM (inactive) | > 100 µM (inactive) | > 100 µM (inactive) | > 100 µM (inactive) | > 100 µM (inactive) | > 100 µM (inactive) | > 100 µM (inactive) | > 100 µM (inactive) | > 100 µM (inactive) | > 100 µM (inactive) | > 100 µM (inactive) | > 100 µM (inactive) | > 100 µM (inactive) | > 100 µM (inactive) | > 100 µM (inactive) | > 100 µM | > 100 µM (inactive)
4 | CC(=O)NC(CCC(=O)C=[N+]=[N-])C(=O)O (stereo not given) | > 100 µM (inactive) | > 100 µM (inactive) | > 100 µM (inactive) | > 100 µM (inactive) | > 100 µM (inactive) | > 100 µM (inactive) | > 100 µM (inactive) | > 100 µM (inactive) | > 100 µM (inactive) | > 100 µM (inactive) | > 100 µM (inactive) | > 100 µM (inactive) | > 100 µM (inactive) | > 100 µM (inactive) | > 100 µM (inactive) | > 100 µM (inactive) | > 100 µM (inactive) | > 100 µM (inactive) | > 100 µM | > 100 µM (inactive)
